Laboratory results taken from ChEMBL document CHEMBL1133003, “GABA-Activated ligand gated ion channels: medicinal chemistry and molecular biology” (J Med Chem, 2000).

Columns and labels:
[1] = biological target: T1, Gamma-aminobutyric acid receptor subunit rho-1 (Homo sapiens, UniProt P24046); assay: Antagonist activity against rho-1 subunit GABA-C receptor expressed in Xenopus oocytes; assay type: functional, cell-based; conditions: Oocyte
[2] = biological target: T2, Gamma-aminobutyric acid receptor subunit rho-2 (Homo sapiens, UniProt P28476); assay: Activation of human rho2 GABA-C receptor at 34% of maximal GABA-induced response
[3] = biological target: T2, Gamma-aminobutyric acid receptor subunit rho-2; assay: Partial agonist activity against human rho-2 subunit GABA-C receptor expressed in Xenopus oocytes; assay type: functional, cell-based, Oocyte
[4] = biological target: T1, Gamma-aminobutyric acid receptor subunit rho-1; assay: Partial agonist activity against human rho1 subunit GABA-C receptor expressed in Xenopus oocytes; assay type: functional, cell-based, Oocyte
[5] = biological target: GABA-A receptor; anion channel; assay: Affinity against recombinant Gamma-aminobutyric acid A (GABA-A) receptor; assay type: protein-complex assay
[6] = biological target: GABA-A receptor; anion channel; assay: Competitive antagonist activity against Gamma-aminobutyric acid A (GABA-A) receptor; assay type: functional
[7] = biological target: T1, Gamma-aminobutyric acid receptor subunit rho-1; assay: Partial agonist activity against rho-1 subunit GABA-C receptor expressed in Xenopus oocytes; assay type: functional, cell-based, Oocyte
[8] = biological target: GABA-A receptor; anion channel; assay: Potent antagonist activity against Gamma-aminobutyric acid A (GABA-A) receptor from rat cortex RNA expressed in Xenopus oocytes; assay type: functional, cell-based; conditions: oocyte
[9] = biological target: T1, Gamma-aminobutyric acid receptor subunit rho-1; assay: Partial agonist activity against rho-1 subunit GABA-C receptor expressed in Xenopus oocytes with low efficacy; assay type: functional, cell-based, Oocyte
[10] = biological target: T2, Gamma-aminobutyric acid receptor subunit rho-2; assay: Full agonist activity against human rho-2 subunit GABA-C receptor expressed in Xenopus oocytes; assay type: functional, cell-based, Oocyte
[11] = biological target: T1, Gamma-aminobutyric acid receptor subunit rho-1; assay: Full agonist activity against human rho-1 subunit GABA-C receptor expressed in Xenopus oocytes; assay type: functional, cell-based, Oocyte
[12] = biological target: T2, Gamma-aminobutyric acid receptor subunit rho-2; assay: Partial agonist activity with low efficacy against rho-2 subunit GABA-C receptor expressed in Xenopus oocytes; assay type: functional, cell-based, Oocyte
[13] = biological target: T1, Gamma-aminobutyric acid receptor subunit rho-1; assay: Partial agonist activity against rho-1 subunit GABA-C receptor expressed in Xenopus oocytes, low intrinsic activity (Im 3%); assay type: functional, cell-based, Oocyte
[14] = biological target: T2, Gamma-aminobutyric acid receptor subunit rho-2; assay: Partial agonist activity against rho-2 subunit GABA-C receptor expressed in Xenopus oocytes, higher intrinsic activity (Im 38%); assay type: functional, cell-based, Oocyte
[15] = biological target: GABA-C receptor (Homo sapiens) (UniProt P28476+A8MPY1+P24046); assay: Antagonist activity against rho subunit Gamma-aminobutyric acid C (GABA-C) receptor expressed in Xenopus oocytes; assay type: functional, cell-based; conditions: Oocyte
[16] = biological target: T1, Gamma-aminobutyric acid receptor subunit rho-1; assay: Partial agonist activity against human rho-1 subunit GABA-C receptor expressed in Xenopus oocytes; assay type: functional, cell-based, Oocyte
[17] = biological target: GABA-A receptor; anion channel; assay: Inhibitory activity against Gamma-aminobutyric acid A (GABA-A) receptor from rat cultured cortical neuron RNA expressed in Xenopus oocytes; assay type: functional, cell-based; conditions: oocyte
[18] = biological target: GABA-A receptor; anion channel; assay: Non-competitive antagonist activity against Gamma-aminobutyric acid A (GABA-A) receptor; assay type: functional, Rattus norvegicus
[19] = biological target: GABA-A receptor; anion channel; assay: Antagonist activity against Gamma-aminobutyric acid A (GABA-A) receptor; assay type: functional, Rattus norvegicus
GABA-C receptor = GABA-C receptor (Homo sapiens, UniProt A8MPY1+P24046+P28476); assay: Agonist activity against Gamma-aminobutyric acid type C (GABA-C) receptor derived from bovine retinal RNA expressed in Xenopus oocytes; assay type: functional, cell-based, Bos taurus, Oocyte
[20] = biological target: T2, Gamma-aminobutyric acid receptor subunit rho-2; assay: Partial agonist activity against homomeric rho-2 subunit GABA-C receptor expressed in Xenopus oocytes; assay type: functional, cell-based, Oocyte

T2 sequence (P28476 whole entry): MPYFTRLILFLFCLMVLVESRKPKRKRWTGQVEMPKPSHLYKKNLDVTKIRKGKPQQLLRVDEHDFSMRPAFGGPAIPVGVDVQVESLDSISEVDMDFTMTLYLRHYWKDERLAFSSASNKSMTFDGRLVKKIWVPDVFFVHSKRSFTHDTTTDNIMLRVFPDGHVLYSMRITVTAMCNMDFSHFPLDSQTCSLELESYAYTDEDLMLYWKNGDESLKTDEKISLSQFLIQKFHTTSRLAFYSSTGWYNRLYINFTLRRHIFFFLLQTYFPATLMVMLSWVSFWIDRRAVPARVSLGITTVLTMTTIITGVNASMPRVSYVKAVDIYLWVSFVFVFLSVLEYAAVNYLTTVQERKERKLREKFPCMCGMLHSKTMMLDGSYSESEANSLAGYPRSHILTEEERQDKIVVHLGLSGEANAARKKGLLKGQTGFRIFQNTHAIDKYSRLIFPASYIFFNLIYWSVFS
T1 sequence (P24046 whole entry): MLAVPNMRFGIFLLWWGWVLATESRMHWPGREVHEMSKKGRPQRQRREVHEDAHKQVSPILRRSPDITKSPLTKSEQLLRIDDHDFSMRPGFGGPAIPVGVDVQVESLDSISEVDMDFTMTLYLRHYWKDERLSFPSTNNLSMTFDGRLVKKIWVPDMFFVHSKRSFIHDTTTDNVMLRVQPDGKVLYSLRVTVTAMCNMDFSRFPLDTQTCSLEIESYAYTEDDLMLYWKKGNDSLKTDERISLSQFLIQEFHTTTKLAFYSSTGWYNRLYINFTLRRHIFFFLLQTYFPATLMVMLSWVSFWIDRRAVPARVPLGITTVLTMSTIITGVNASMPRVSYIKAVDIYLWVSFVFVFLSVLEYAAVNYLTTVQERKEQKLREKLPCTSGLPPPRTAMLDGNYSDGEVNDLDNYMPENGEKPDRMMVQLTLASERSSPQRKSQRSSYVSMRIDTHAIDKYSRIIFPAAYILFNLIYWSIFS
GABA-C receptor, sequence (P28476 whole entry): as the sequence (P28476 whole entry) above
GABA-C receptor, sequence (A8MPY1 whole entry): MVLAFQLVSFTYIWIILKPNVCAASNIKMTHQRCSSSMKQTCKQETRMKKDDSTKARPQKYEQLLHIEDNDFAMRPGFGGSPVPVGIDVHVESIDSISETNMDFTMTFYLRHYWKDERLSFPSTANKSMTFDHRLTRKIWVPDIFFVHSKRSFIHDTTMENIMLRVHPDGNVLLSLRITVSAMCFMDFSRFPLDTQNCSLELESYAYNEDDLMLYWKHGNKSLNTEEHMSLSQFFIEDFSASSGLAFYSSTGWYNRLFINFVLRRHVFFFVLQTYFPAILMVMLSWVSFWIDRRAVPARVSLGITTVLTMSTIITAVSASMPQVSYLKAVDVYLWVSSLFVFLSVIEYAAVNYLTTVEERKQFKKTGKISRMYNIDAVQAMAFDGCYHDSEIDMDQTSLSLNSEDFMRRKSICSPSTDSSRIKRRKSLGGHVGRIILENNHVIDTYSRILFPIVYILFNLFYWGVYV
GABA-C receptor, sequence (P24046 whole entry): as the sequence (P24046 whole entry) above
GABA-C receptor (Homo sapiens), sequence (A8MPY1 whole entry, looked up): as the sequence (A8MPY1 whole entry) above
GABA-C receptor (Homo sapiens), sequence (P24046 whole entry, looked up): as the sequence (P24046 whole entry) above
GABA-C receptor (Homo sapiens), sequence (P28476 whole entry, looked up): as the sequence (P28476 whole entry) above

SMILES: C/C(=C\CN)C(=O)O
- Kb [1]: 45 µM
- EC50 [2]: 101 µM

SMILES: NC/C=C\C(=O)O
- EC50 [3]: 70 µM
- EC50 [4]: 74 µM

SMILES: O=c1cc(-c2cccc([N+](=O)[O-])c2)oc2cccc(Br)c12
- Ki [5]: 0.03 µM

SMILES: c1ccc2c(NCCCCCCCNc3c4c(nc5ccccc35)CCCC4)c3c(nc2c1)CCCC3
- IC50 [6]: 6 µM

SMILES: NC/C=C(\F)C(=O)O
- EC50 [7]: 2.43 µM

SMILES: O=S(=O)(O)C1CCNCC1
- Kd [8]: 104 µM

SMILES: NC[C@@H]1C[C@@H]1C(=O)O (relative stereo)
- EC50 [9]: 20 µM
- EC50 [10]: 34.5 µM
- EC50 [11]: 68 µM
- EC50 [12]: 17.5 µM

SMILES: COC(=O)[C@H]1[C@@H](OC(=O)c2ccccc2)C[C@@H]2CC[C@H]1N2C [COCAINE]
- IC50 [5]: 127 µM

SMILES: NCCCS(=O)O [HOMOHYPOTAURINE]
- EC50 [4]: 4.6 µM

SMILES: O=C(O)Cc1c[nH]cn1 [IMIDAZOLE ACETIC ACID]
- EC50 [13]: 16 µM
- EC50 [14]: 3 µM
- Kb [15]: 1.5 µM

SMILES: NCc1cc(=O)[nH]o1 [MUSCIMOL]
- Kd [16]: 2.3 µM
- Kd [3]: 1.4 µM

SMILES: CCCCCCCC/C=C\CCCCCCCC(N)=O [OLEAMIDE]
- EC50 [17]: 15 µM

SMILES: Cc1nccn1CC1CCc2c(c3ccccc3n2C)C1=O (centres undefined) [ONDANSETRON]
- IC50 [18]: 10 µM

SMILES: Cc1ccc2c(c1)c1c3n2CCNC3CCC1 (centres undefined) [PIRLINDOLE]
- EC50 [19]: 12 µM

SMILES: NC/C=C/C(=O)O [t-4-AMINOCROTONIC ACID (TACA)]
- Kd (GABA-C receptor): 0.6 µM
- EC50 [20]: 0.4 µM
